Assay results taken from patent US8735556B2, “Sensitive and generic antibodies and multiple applications” (Randox Laboratories Limited, priority 2011, dated 2014).
Values after ≈ are worked out from the molar mass of the structure shown. Where two headings read alike, the source gives them in different places.

How the values were obtained:
[1] = test system: Abbott Diagnostics Axsym carbamazepine immunoassay; details: cited from earlier work
[2] = test system: Siemens ADVIA carbamazepine immunoassay; details: cited from earlier work
[3] = test system: Beckman Coulter (BC) carbamazepine immunoassay; details: Beckman Coulter BC analyzers; cited from earlier work
[4] = test system: antiserum raised to Immunogen II; assay: Competitive ELISA, antibody characterisation; assay type: binding, sheep; details: for % Cross-reactivity: CR based on 100% for carbamazepine, IC50 carbamazepine/IC50 CR x 100; for IC50: antiserum raised to Immunogen II, detecting agent derived from Hapten-A, competitive assay format
Protocol: The antibody titre is evaluated by coating a microtitre plate (Thermo Fisher Scientific NUNC, 468667) with antibody (125 μl/well) in coating buffer (10 mM Tris pH 8.5) at 37° C. for 2 hours. The plate is then washed 4 times over 10 minutes with working strength TBST. 50 μl of sample/standard (Carbamazepine, Sigma C4024) is added to the appropriate wells in triplicate, followed by 75 μl of hapten-HRP conjugate and incubated at 25° C. for 1 hour. The plate is then washed and 125 μl of TMB (Randox, 4380-15) added to each well and left at room temperature for 20 mins in the dark. The reaction is stopped using 125 μl of 0.2M sulphuric acid. The absorbances are read at 450 nm with an ELISA microplate reader (BIO-TEK Instruments, Elx800) and the means calculated. Antibody sensitivity can then be determined. […] The immunogenic mixture (1 ml) was administered to adult sheep on a monthly basis to provide target-specific polyclonal antisera. IgG was extracted from the antisera via caprylic acid/ammonium sulphate precipitation of immunoglobulin. A microtitre plate (Thermo Fisher Scientific NUNC, 468667) was coated with antibody (125 μl/well) in coating buffer (10 mM Tris pH 8.5) at 37° C. for 2 hours. […] The plate was then washed and 125 μl of TMB (Randox, 4380-15) was added to each well and left at room temperature for 20 mins in the dark. The reaction was stopped using 125 μl of 0.2M sulphuric acid. The absorbances were read at 450 nm with an ELISA microplate reader (BIO-TEK Instruments, Elx800) and the means calculated. Antibody specificity and sensitivity were then determined. […] The results of this study are presented in Table 2, cross-reactivity being calculated according to the following formula: % CR=IC50. carbamazepine/IC50. CR×100 […] CR is the concentration of carbamazepine/metabolites/structurally-related molecules that causes 50% displacement of signal.

[5] = test system: Roche Diagnostics Online TDM carbamazepine immunoassay; details: at 6 μg/ml of carbamazepine; cited from earlier work
[6] = test system: monoclonal antibody of CBZ immunoassay; details: cited from earlier work
[7] = cited from earlier work
[8] = cited from earlier work; remark: listed apart in the source

| Structure (SMILES) | Cross-reactivity [3] [%] | % Cross-reactivity [4] | IC50 [4] | also measured |
| --- | --- | --- | --- | --- |
| CNCCCN1c2ccccc2CCc2ccccc21 [Desipramine] | – | – | – | Cross-reactivity [1]: ≦540.0% |
| CN(C)CCC=C1c2ccccc2CCc2ccccc21 [Amitriptyline, amitriptyline] | 18.6 | <<1.10% | >>200 ng/ml | Cross-reactivity [2]: 5.2% |
| CN(C)CCCN1c2ccccc2CCc2ccccc21 [Imipramine, imipramine] | 5.6 | <<1.10% | >>200 ng/ml | – |
| c1ccc2c(c1)Nc1ccccc1S2 [Phenothiazine] | 8.6 | – | – | – |
| CN1C(=O)CN=C(c2ccccc2)c2cc(Cl)ccc21 [Diazepam] | 4.8 | – | – | – |
| CNCCC=C1c2ccccc2CCc2ccccc21 [Nortryptyline] | 17.2 | – | – | Cross-reactivity [2]: 5.2% |
| NC(=O)N1c2ccccc2CC(O)c2ccccc21 (centres unmarked) [Hapten 10-OH-CBZ, 10,11-dihydro-10-hydroxycarbazepine] | – | 67.40% | 3.167 ng/mL (≈ 0.0125 µM) | Cross-reactivity [5]: 1.2%; Cross-reactivity [6]: negligible |
| NC(=O)N1c2ccccc2C2OC2c2ccccc21 (centres unmarked) [CBZ-E, carbamazepine-10,11-epoxide] | 7.4 | 68.30% | 3.125 ng/mL (≈ 0.0124 µM) | Cross-reactivity [2]: 21.8%; Cross-reactivity [5]: 14.0%; Cross-reactivity [1]: ≦83.0% |
| NC(=O)N1c2ccccc2C(O)C(O)c2ccccc21 (centres unmarked) [10,11-diOH-CBZ, 10,11-dihydro-10,11-dihydroxycarbamazepine] | – | 14.00% | 15.269 ng/mL (≈ 0.0565 µM) | major urinary excretory product ([7]; of CBZ, urine): 80%; Cross-reactivity [6]: negligible |
| NC(=O)N1c2ccccc2C=Cc2ccccc21 [CBZ, carbamazepine] | – | 100.00% | 2.135 ng/mL (≈ 0.00904 µM) | toxic value ([8]; free carbamazepine): > 4.00 µg/mL; toxic value ([8]; total carbamazepine): greater than 12.00 μg/ml; half-life ([7]; in patients): 18 to 65 h |
| NC(=O)N1c2ccccc2CC(=O)c2ccccc21 [Oxcarbazepine, oxcarbazepine] | – | 299.00% | 0.714 ng/mL (≈ 0.00283 µM) | Cross-reactivity [5]: 1.0%; Cross-reactivity [6]: negligible |
